This note sets out measurements from US20250282779A1, “SUBSTITUTED 5,6,7,8-TETRAHYDROPYRIDO[2,3-D]PYRIMIDINE-2,4-DIONES FOR TREATING CARDIAC DISEASES” (MYOKARDIA, INC., priority 2018, published 2025).

Data set [1] has as its target T1, bovine cardiac myosin (Bos taurus (Bovine), UniProt Q9BE39). Kind of data set: Myosin inhibition assay (bcMF pCa 6 IC50). Conditions: bovine cardiac myofibrils, calcium giving 50% activation. In kind it is biochemical. How it is done:
Myosin inhibition assay (bcMF pCa 6IC50 (μM))
Small molecule agents were assessed for their ability to inhibit the enzymatic activity of bovine cardiac myosin using a biochemical assay that couples the release of ADP (adenosine diphosphate) from cardiac myosin to an enzymatic coupling system consisting of pyruvate kinase and lactate dehydrogenase (PK/LDH) and monitoring the absorbance decrease of NADH (at 340 nm) as a function of time. PK converts ADP to ATP (adenosine triphosphate) by converting PEP (phosphoenolpyruvate) to pyruvate. Pyruvate is then converted to lactate by LDH by converting NADH (nicotinamide adenine dinucleotide) to NAD (oxidized nicotinamide adenine dinucleotide). The source of cardiac myosin was from bovine heart in the form of skinned myofibrils. Prior to testing small molecule agents, the bovine myofibrils were assessed for their calcium responsiveness and the calcium concentration that achieves a 50% activation of the myofibril system was chosen as the final condition for assessing the inhibitory activity of the small molecule agents. All enzymatic activity was measured in a buffered solution containing 12 mM PIPES (piperazine-N,N′-bis(2-ethanesulfonic acid), 2 mM magnesium chloride at pH 6.8 (PM12 buffer). Final assay conditions were 1 mg/mL of bovine cardiac myofibrils, 0.4 mM PK/LDH, 50 uM ATP, 0.1 mg/mL BSA (bovine serum albumin), 10 ppm antifoam, 2 mM BME, 0.5 mM NADH, and 1.5 mM PEP at the desired free calcium concentration required to achieve 50% activation of the myofibrils.
A dilution series of compound was created in DMSO such that the final desired concentration of compound would be achieved in a volume of 30 μL with a fixed DMSO concentration of 3.3% (v/v). Typically 1 μL of the dilution series were added to 384 well plate to achieve a 10 point dose response. Following the addition of 14 μL of a solution containing bovine cardiac myofibrils, PK/LDH and a solution of calcium (that achieved 50% activation), the enzymatic reaction was started with the addition of 15 μL of a solution containing ATP, PEP and NADH. The reaction progress was followed in a PerkinElmer Envision plate reader at ambient temperature using clear bottom plates. The plate reader was configured to read absorbance at 340 nm in kinetics mode for 15 minutes. Data were recorded as the slope of the absorbance response to time. The slopes of the absorbance response as a function of time were normalized to slopes on the plate containing DMSO. This normalized rate was then plotted as a function of small molecule concentration and the data was fitted to a four-parameter fit using EXCEL XLfit. The IC50 is the concentration at which fifty percent of the total response is inhibited.

In data set [2] the test system is adult rat ventricular myocytes. The data set can be described thus: Cardiomyocyte contractility assay. In kind it is cell-based. As to conditions: 0.3 μM compound; for inhibition at 0.3 µM: Rattus norvegicus, Ventricular myocyte, fractional shortening, myocytes paced at 1 Hz, read-out: % inhibition of FS at 0.3 μM. How it is done:
Cardiomyocyte Contractility Assay
Contractility of adult rat ventricular myocytes is determined by edge detection with an IonOptix contractility system. Aliquots of myocytes in Tyrode buffer (137 mM NaCl, 3.7 mM KCL, 0.5 mM MgCl2, 1.5 mM CaCl2, 4 mM HEPES, 11 mM glucose) are placed in a perfusion chamber (Series 20 RC-27NE; Warner Instruments), allowed to adhere to the coverslip, and then perfused with 37° C. Tyrode buffer. Myocytes are filed stimulated at 1 Hz and 10V. Only myocytes with clear striations, quiescent prior to pacing, with a cell length of 120-180 microns, a basal fractional shortening equal to 3-8% of the cell length, and a contraction velocity greater than 100 microns per second are used for contractility experiments. To determine the response to compounds (at 0.3 μM concentration), myocytes are first perfused for 60 seconds with Tyrodes buffer followed by 5 min of compound and a 140 second washout with Tyrodes buffer. Data is continuously recorded using IonOptix software. Contractility data is analyzed using Ionwizard software (IonOptix). For each cell, 10-20 contractility transients were averaged and compared under basal (no compound) and compound-treated conditions. Compound activity is measured by effects on fractional shortening (FS), where fractional shortening is the ratio of the peak length of the cell at contraction divided by the basal cell length normalized to 100% for an untreated cell. The % inhibition measurement is calculated by subtracting the FS value from 100%.

In data set [3] the target is T1, bovine cardiac myosin. The data set can be described thus: Myosin inhibition assay (bcMF serum pCa 6 IC50), 10% human serum. In kind it is biochemical. As to conditions: in the presence of 10% human serum. An excerpt: Myosin Inhibition Assay (bcMF Serum pCa 6 IC50 (μM))
Inhibition of the enzymatic activity of bovine cardiac myosin associated with the release of ADP (adenosine diphosphate) at the calcium concentrate that achieves a 50% activation of the bovine cardiac myofibril system in the presence of 10% human serum. The procedure was the same as that bovin cardiac myosin inhibition assay (bcMF pCa 6 IC50 (μM)) but with the addition of 10% human serum.

SMILES strings stand for the structures.

T1 sequence (Q9BE39 whole entry): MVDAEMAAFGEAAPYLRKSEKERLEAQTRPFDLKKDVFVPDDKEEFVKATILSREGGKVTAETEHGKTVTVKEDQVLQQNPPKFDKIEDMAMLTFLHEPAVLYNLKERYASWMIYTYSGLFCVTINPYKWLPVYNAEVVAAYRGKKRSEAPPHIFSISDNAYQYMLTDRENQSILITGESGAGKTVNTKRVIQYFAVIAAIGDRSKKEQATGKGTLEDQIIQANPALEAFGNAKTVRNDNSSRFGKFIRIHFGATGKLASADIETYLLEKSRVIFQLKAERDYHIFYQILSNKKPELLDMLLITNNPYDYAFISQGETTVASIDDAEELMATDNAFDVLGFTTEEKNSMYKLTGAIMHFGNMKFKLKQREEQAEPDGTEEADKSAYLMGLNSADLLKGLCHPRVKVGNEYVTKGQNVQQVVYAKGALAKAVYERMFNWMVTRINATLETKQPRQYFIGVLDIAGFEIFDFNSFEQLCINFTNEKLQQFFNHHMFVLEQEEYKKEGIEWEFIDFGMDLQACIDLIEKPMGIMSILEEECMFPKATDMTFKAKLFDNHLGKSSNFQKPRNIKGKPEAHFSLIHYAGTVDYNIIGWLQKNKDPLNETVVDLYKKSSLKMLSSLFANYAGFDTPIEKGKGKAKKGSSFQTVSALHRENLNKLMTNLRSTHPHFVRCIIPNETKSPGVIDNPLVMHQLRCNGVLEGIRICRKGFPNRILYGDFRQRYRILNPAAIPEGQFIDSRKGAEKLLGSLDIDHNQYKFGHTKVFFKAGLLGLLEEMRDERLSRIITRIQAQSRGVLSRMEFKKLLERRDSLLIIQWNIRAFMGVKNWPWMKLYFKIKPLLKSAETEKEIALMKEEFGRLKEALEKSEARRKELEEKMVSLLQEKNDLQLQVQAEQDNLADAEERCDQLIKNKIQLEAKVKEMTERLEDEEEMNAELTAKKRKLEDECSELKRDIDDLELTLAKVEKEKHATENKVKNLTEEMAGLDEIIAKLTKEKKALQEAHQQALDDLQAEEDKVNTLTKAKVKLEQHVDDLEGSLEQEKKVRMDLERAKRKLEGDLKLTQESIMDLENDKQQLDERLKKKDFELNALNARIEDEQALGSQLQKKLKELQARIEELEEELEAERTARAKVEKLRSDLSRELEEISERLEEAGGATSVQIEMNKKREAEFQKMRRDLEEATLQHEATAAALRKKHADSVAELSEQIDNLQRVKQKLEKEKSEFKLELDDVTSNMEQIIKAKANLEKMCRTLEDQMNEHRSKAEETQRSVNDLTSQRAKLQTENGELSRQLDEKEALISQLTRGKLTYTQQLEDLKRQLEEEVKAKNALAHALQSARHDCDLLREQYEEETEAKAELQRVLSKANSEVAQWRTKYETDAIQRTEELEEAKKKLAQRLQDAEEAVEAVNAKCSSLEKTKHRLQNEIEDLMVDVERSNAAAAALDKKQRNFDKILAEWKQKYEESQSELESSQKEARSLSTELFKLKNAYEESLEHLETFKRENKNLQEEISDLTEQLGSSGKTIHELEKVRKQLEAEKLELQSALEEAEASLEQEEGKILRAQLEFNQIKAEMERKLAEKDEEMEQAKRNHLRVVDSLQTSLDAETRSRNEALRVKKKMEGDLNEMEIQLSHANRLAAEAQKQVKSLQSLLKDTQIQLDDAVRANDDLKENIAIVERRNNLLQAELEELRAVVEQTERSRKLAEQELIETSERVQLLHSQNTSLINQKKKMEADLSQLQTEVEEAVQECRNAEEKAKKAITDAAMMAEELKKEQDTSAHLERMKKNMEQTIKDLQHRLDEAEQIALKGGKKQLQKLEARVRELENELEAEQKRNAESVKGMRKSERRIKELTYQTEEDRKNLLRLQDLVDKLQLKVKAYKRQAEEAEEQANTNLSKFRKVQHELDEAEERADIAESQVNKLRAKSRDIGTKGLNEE
T1 sequence (P85100 whole entry partner): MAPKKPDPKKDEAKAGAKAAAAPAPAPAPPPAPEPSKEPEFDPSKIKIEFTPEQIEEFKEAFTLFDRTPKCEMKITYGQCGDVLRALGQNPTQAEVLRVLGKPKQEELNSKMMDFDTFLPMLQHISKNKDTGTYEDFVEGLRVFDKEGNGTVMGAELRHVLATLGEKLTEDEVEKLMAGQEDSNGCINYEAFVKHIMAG
T1 sequence (Q3SZE5 whole entry partner): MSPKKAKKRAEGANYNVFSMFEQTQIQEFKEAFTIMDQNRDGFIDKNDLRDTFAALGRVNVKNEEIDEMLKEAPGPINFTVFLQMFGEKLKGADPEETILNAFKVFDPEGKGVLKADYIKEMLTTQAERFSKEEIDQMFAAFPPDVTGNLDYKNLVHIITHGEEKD

Turning to `Cc1ccc(F)c([C@@H]2Nc3[nH]c(=O)n(C4CCOCC4)c(=O)c3C[C@@H]2F)c1` [Compound 3, (6S,7S)-6-fluoro-7-(2-fluoro-5-methylphenyl)-3-(tetrahydro-2H-pyran-4-yl)-5,6,7,8-tetrahydropyrido[2,3-d]pyrimidine-2, 4 (1H, 3H)-dione], the IC50 at bovine cardiac myosin [1] (read-out: bcMF pCa 6 IC50) was 1110 nM; on bovine cardiac myosin [1] (read-out: bcMF pCa_6 IC50 MEAN) it was 1110 nM; on bovine cardiac myosin [3], 1560 nM. In addition, the inhibition at 0.3 µM in data set [2] is greater than 66%.

Consider `O=c1[nH]c2c(c(=O)n1C1CCOCC1)CC(F)(F)[C@H](c1cccc(F)c1)N2` [Compound C-1, (S)-6,6-difluoro-7-(3-fluorophenyl)-3-(tetrahydro-2H-pyran-4-yl)-5,6,7,8-tetrahydropyrido[2,3-d]pyrimidine-2,4(1H,3H)-dione, reference compound], for which, at bovine cardiac myosin [1] (read-out: bcMF pCa 6 IC50), the 50% inhibitory concentration (IC50) was determined as 1570 nM. For the same compound, in data set [2], the “observation in cardiomyocyte contractility assay” value was “Early after depolarization or EAD” and the inhibition at 0.3 µM lay in the range of 33 to 66%. For the same compound, on bovine cardiac myosin [3], the IC50 came out at 3490 nM.
